# Paper PMC7111419 (European Journal of Medicinal Chemistry, 2019)
# Where two headings read alike, the source gives them in different places.
# Tests used:
# [1] = test system: βGLU; settings: cited from earlier work
# [2] = test system: male Fischer rats; settings: cited from earlier work; for reduction of aberrant crypt foci formation: 5 weeks, vs azoxymethane-controls
# [3] = test system: βGLU; type: biochemical
# [4] = test system: newborns; settings: cited from earlier work
# [5] = test system: male Wister rats; settings: cited from earlier work; for tumour size: from 2 cm
# [6] = test system: bacterial βGLU; settings: cited from earlier work
# [7] = test system: whole human gut bacterial βGLU (eight bacterial isolates); settings: cited from earlier work
# [8] = test system: E. coli βGLU; settings: cited from earlier work
# [9] = test system: rat liver βGLU; settings: cited from earlier work
# [10] = test system: male ICR mice; settings: cited from earlier work
# [11] = test system: male Wistar rats; settings: cited from earlier work
# [12] = test system: bovine liver βGLU; settings: cited from earlier work
# [13] = test system: E. coli βGLU; assay: E. coli βGLU inhibition; type: biochemical
# [14] = test system: 3T3 cells; settings: cited from earlier work
# [15] = test system: bacterial βGLU; type: biochemical
# [16] = test system: BALB/cJ mice; settings: 10 μg twice daily with 50 mg/kg CPT-11 once daily; cited from earlier work
# [17] = cited from earlier work
# [18] = […] test concentration, US 7,294,330 B2
compound,measurement,setting,value
O=C(Cn1c(-c2ccccn2)nc2ccccc21)c1ccc(F)cc1 [Compound 4-F],IC50,[1],26.3 µM
"CC(=O)O[C@@H]1C(=O)O[C@H]2[C@@H]1OC(=O)[C@@H]2OC(C)=O [Compound 6, 2,5-di-O-acetyl-D-glucaro-1,4:6,3-dilactone]",reduction of aberrant crypt foci formation,[2]; 0.5% in diet,over 48.6%
same,reduction of aberrant crypt foci formation,[2]; 2% in diet,> 55.3%
same,inhibition of colon carcinogenesis,"[2]; post-initiation phase, 32 weeks treatment (D-GL: 2%)",over 70%
COC(=O)[C@]1(Cc2ccc(O)c(C=O)c2)OC(=O)C(O)=C1c1ccc(O)cc1 [Compound 8],fold stronger potency than prenylated isomer (9),[3],16 fold
same,fold superior potency compared to D-SAL,[3],8 fold
"N[C@@H](CC(=O)O)C(=O)O [Compound 10, L-aspartic acid]",fold more potent than D-isomer,[3],100 fold
same,inhibition of βGLU,[1]; 100 μM,~86%
same,"transcutaneous bilirubin levels, lower than control","[4]; 6 doses, 180 mg/5 ml of water/day, first week of life",25%
same,adverse effects,[4],no adverse effects
"O=c1cc(-c2ccc(O)c(O)c2)oc2cc(O)cc(O)c12 [Compound 11, Luteolin]",bacterial βGLU activity,"[5]; 0.1, 0.2 or 0.3 mg/kg body weight/day p.o., 30 weeks, vs DMH-controls",significantly reduced
same,reduction in tumour incidence,[5],up to 90%
same,tumour size,[5]; initiation stage,0.25 cm
same,tumour size,[5]; post-initiation stage,0.50 cm
"O=c1c(O)c(-c2ccc(O)cc2)oc2cc(O)cc(O)c12 [Compound 19, Kaempferol]",IC50,[6],36.5 µM
"CC(C)=CC[C@]12Oc3cc(O)c([C@H]4C=C(C)C[C@H](c5ccc(O)cc5O)[C@H]4C(=O)c4ccc(O)cc4O)c(O)c3C(=O)[C@@]1(O)Oc1cc(O)ccc12 [Compound 20, Sanggenon C]",IC50,[7],12.5 µM
same,inhibition,[7],> 70%
"CC(C)=CCc1c(-c2ccc(O)cc2O)oc2c([C@H]3C=C(C)C[C@@H](c4ccc(O)cc4O)[C@@H]3C(=O)c3ccc(O)cc3O)c(O)cc(O)c2c1=O [Compound 21, Kuwanon G]",IC50,[7],7.4 µM
same,inhibition,[7],> 70%
"C=CCc1ccc(O)c(OC)c1 [Compound 39, eugenol]",IC50,[1],616.68 µg/mL
"O=c1c2cc(O)c(O)cc2oc2cc(O)c([C@@H]3O[C@H](CO)[C@@H](O)[C@H](O)[C@H]3O)c(O)c12 [Compound 40, mangiferin]",IC50,[1],38 µM
"O=c1c(-c2ccc(O)cc2)coc2cc(O)ccc12 [Compound 41, daidzein]",IC50,[8],410 µg/mL
same,IC50,[9],500 µg/mL
"COc1c(O[C@@H]2O[C@H](CO)[C@@H](O)[C@H](O)[C@H]2O)cc2occ(-c3ccc(O)cc3)c(=O)c2c1O [Compound 43, tectoridin]",hepatoprotection,[10]; 100 mg/kg intraperitoneal,failure to provide desired hepatoprotection
same,"serum AST, ALT and LDH levels relative to CCl4-treated controls",[10]; 100 mg/kg oral,significantly lowering
same,presence in serum,"[10]; 250 mg/kg oral, only tectorigenin detected",absence in the serum
"CC1(C)[C@@H](O)CC[C@]2(C)[C@H]3C(=O)C=C4[C@@H]5C[C@@](C)(C(=O)O)CC[C@]5(C)CC[C@@]4(C)[C@]3(C)CC[C@@H]12 [Compound 44, 18β-glycyrrhetinic acid]",IC50,[8],510 µM
same,IC50,[9],42.5 µM
same,"AST, ALT and LDH levels compared to CCl4-controls",[11]; 100 mg/kg intraperitoneal,significant reduction
"CC1(C)[C@@H](O[C@H]2O[C@H](C(=O)O)[C@@H](O)[C@H](O)[C@H]2O[C@@H]2O[C@H](C(=O)O)[C@@H](O)[C@H](O)[C@H]2O)CC[C@]2(C)[C@H]3C(=O)C=C4[C@@H]5C[C@@](C)(C(=O)O)CC[C@]5(C)CC[C@@]4(C)[C@]3(C)CC[C@@H]12 [Compound 45, glycyrrhizinic acid]","AST, ALT and LDH levels compared to CCl4-controls",[11]; 100 mg/kg oral,significant reduction
same,hepatoprotection,[11]; intraperitoneal administration,did not provide hepatoprotection
C[C@]12C=C/C(=N\O)C=C1CC[C@H]1[C@@H]3[C@@H](O)C[C@](C)(O)[C@@]3(C)CC[C@@H]12 [Compound 49],fold superior than Z-isomer,[3],2 fold
NC[C@@H]1C[C@@H]2[C@H](O)[C@@H](O)[C@H](O)[C@@H](C(=O)O)N2C(=O)O1 [Compound 71],IC50,[12],218 µM
NC[C@@H]1OC(=O)N2[C@H]1[C@H](O)[C@@H](O)[C@H](O)[C@H]2C(=O)O [Compound 73],IC50,[12],259 µM
COc1ccc(C[C@@H]2CCC[C@@H]3[C@H](O)[C@@H](O)[C@H](CO)N23)cc1 [Compound 74],inhibition,[8]; 1 mM,< 50%
CCCCCCO[C@H]1C[C@](Cl)(CO)[C@@H](O)[C@H](O)[C@H]1NC(C)=O [Compound 75],IC50,[8],170 µM
"O=C(O)[C@@H]1[C@@H](O)[C@H](O)[C@@]2(O)CC[C@@H]1N2 [Compound 77, uronic-noeurostegine]",selectivity for E. coli βGLU over bovine liver βGLU,[13],38 fold
same,Ki,[8],0.06 µM
CCCC[C@H]1NC[C@@H](O)[C@@H](O)[C@H](O)[C@H]1O [Compound 85],IC50,[8],261 µM
O=C(O)[C@H]1NC[C@H](O)[C@@H](O)[C@@H]1O [Compound 94],selectivity for bovine liver βGLU,[12],3 fold
Oc1ccccc1-c1nc2cc(Cl)cc(Cl)c2[nH]1 [Compound 111],fold potency vs D-SAL,[3],11 fold
O=C(Cn1c(-c2ccccn2)nc2ccccc21)c1ccccc1[N+](=O)[O-] [Compound 112],IC50,[1],4.06 µM
COc1ccccc1-c1nnc(-c2ccc(C(=O)NNS(=O)(=O)c3cc(Cl)c(Cl)cc3Cl)cc2)o1 [Compound 116],IC50,[1],1.4 µM
O=C(N/N=C/c1c(O)cc(O)cc1O)c1cc2cc(Cl)ccc2[nH]1 [Compound 128],fold stronger than corresponding oxadiazole variant of compound 115 library,[3],3 fold
O=C(N/N=C/c1ccccc1F)c1cc2cc(Cl)ccc2[nH]1 [Compound 129],fold stronger than corresponding oxadiazole variant of compound 115 library,[3],43 fold
Oc1cccc(C(c2c[nH]c3cc(Br)ccc23)c2c[nH]c3ccc(Br)cc23)c1O (stereo not shown) [Compound 133],cytotoxicity,[14],moderate cytotoxicity
O=C(/C=C/c1ccc(O)cc1)O[C@@H]1O[C@H](Oc2cc(O)c3c(=O)cc(-c4ccc(O)cc4)oc3c2)[C@@H](O)[C@H](O)[C@H]1O [Compound 148],fold potency vs D-SAL,[15],10 fold
same,cytotoxicity,[14],totally non-cytotoxic
CCOc1ccc(NC(=S)N(CCO)Cc2cc3cc(C)cc(C)c3[nH]c2=O)cc1 [Compound 151],CPT-11 induced diarrhoea,[16],alleviated Irinotecan (CPT-11) induced diarrhoea
same,half-life,[17],< 1 h
COc1ccc(-c2nc(O)c3ccccc3n2)cc1OC [Compound 160],fold potency vs D-SAL,[13],76 fold
O=C1CCCCCC/C=C/CCCCCCC1 [Compound 191],inhibition of E. coli βGLU,[8]; 0.001 wt%,95.8%
same,inhibition of E. coli βGLU,[8]; 0.1 wt% in dipropylene glycol,100%
O=S(=O)(NCc1cccc(Cl)c1)c1cc(Cl)c(Oc2cccc(N3CCNCC3)c2)s1 [Compound 193],IC50,[6]; US 9617.239 B2,equipotent
same,IC50,"[6]; US 9617.239 B2, listed as C00012",0.02 µM
O=c1c(-c2ccc(O)cc2)coc2cc(O[C@@H]3O[C@H](CO)[C@@H](O)[C@H](O)[C@H]3O)ccc12 [daidzin],IC50,[8],inactive
same,IC50,[9],inactive
"C[C@]12C=CC(=O)C=C1CC[C@@H]1[C@@H]2CC[C@@]2(C)[C@H]1CC[C@]2(C)O [dianabol, reference compound]",IC50,[1],inactive
O=c1c(-c2ccc(O)cc2)coc2c([C@@H]3O[C@H](CO)[C@@H](O)[C@H](O)[C@H]3O)c(O)ccc12 [puerarin],IC50,[8],inactive
same,IC50,[9],inactive
O=C([O-])[C@H](O)[C@@H](O)[C@H](O)[C@H](O)CO.O=C([O-])[C@H](O)[C@@H](O)[C@H](O)[C@H](O)CO.[Zn+2] [zinc gluconate],inhibition of E. coli βGLU,[8]; [18],97%
NCC(=O)[O-].NCC(=O)[O-].[Zn+2] [zinc glycinate],inhibition of E. coli βGLU,[8]; [18],99%
tectorigenin [Compound 42],IC50,[1],300 µg/mL
same,"serum AST, ALT and LDH levels relative to CCl4-treated controls",[10]; 50 mg/kg intraperitoneal pre-treatment,significantly lowering
